These molecules were tested against T1, LPA/S1P GPCR of interest (Homo sapiens, UniProt Q92633) (assay: Beta-Arrestin based assay (PathHunter)).
T1 construct: host or cells: CHO
Assay type: cell-based
Method: CMV promoter based DNA constructs expressing a fusion of the LPA/S1P GPCR of interest and ProLink™ tag were used to transfect EA Parental™ CHO cells (DiscoverX, Fremont, Calif.) using a FuGENE® transfection kit (Roche). Beta-Arrestin based assays were conducted 24-48 hrs post transfection using PathHunter® assay kits (DiscoverX, Fremont, Calif.). Agonist and antagonist assays were performed in quadruplicate in white 384 well plates. End point luminescence data were plotted and fit to a 4 parameter logistic function to obtain IC50 values. For antagonist assays, an IC80 concentration of agonist (LPA) equal to 0.5 micromolar was used.

T1 sequence (Q92633 whole entry): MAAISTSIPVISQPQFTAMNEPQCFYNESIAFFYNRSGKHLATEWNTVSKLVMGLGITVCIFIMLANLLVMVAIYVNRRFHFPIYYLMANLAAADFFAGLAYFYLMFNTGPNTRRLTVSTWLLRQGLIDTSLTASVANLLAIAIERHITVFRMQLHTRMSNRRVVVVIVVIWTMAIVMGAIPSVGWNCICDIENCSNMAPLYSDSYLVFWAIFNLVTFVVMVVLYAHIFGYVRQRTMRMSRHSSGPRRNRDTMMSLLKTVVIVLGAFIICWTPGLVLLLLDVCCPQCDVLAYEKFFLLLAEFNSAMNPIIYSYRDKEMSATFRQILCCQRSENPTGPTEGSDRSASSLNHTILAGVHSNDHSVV

| SMILES | EC50 [nM] |
| --- | --- |
| C[C@@H](OC(=O)Nc1c(-c2cc3sc(-c4ccc(C5(C(=O)O)CC5)cc4OC(F)(F)F)cc3s2)nnn1C)c1ccccc1 [IT386] | 50 to 500 |
| Cc1nsc(-c2cc3sc(-c4ccc(C5(C(=O)O)CC5)cc4OC(F)(F)F)cc3s2)c1NC(=O)O[C@H](C)c1ccccc1 [IT387] | 50 to 500 |
| Cc1noc(-c2ccc(-c3ccc(Oc4ccc(C(=O)O)o4)cc3)cc2)c1NC(=O)O[C@H](C)c1ccccc1 [IT388] | 50 to 500 |
| Cc1nsc(-c2cc3sc(-c4ccc(C5(C(=O)O)CC5)cc4Cl)cc3s2)c1NC(=O)O[C@H](C)c1ccccc1 [IT391] | 50 to 500 |
| C[C@@H](OC(=O)Nc1c(-c2cc3sc(-c4cnc(C5(C(=O)O)CC5)c(F)c4)cc3s2)cnn1C)c1ccccc1 [IT392] | 50 to 500 |
| C[C@@H](OC(=O)Nc1c(-c2cc3sc(-c4cnc(C5(C(=O)O)CC5)c(F)c4)cc3s2)nnn1C)c1ccccc1 [IT393] | < 50 |
| C[C@@H](OC(=O)Nc1c(-c2cc3sc(-c4ccc5c(C6(C(=O)O)CC6)coc5c4)cc3s2)cnn1C)c1ccccc1 [IT395] | > 500 |
| C[C@@H](OC(=O)Nc1c(-c2cc3sc(-c4ccc5c(C6(C(=O)O)CC6)coc5c4)cc3s2)nnn1C)c1ccccc1 [IT396] | 50 to 500 |
| Cc1nsc(-c2cc3sc(-c4ccc5c(C6(C(=O)O)CC6)coc5c4)cc3s2)c1NC(=O)O[C@H](C)c1ccccc1 [IT397] | > 500 |
| C[C@@H](OC(=O)Nc1c(-c2ccc(C#CC(=O)NCC(=O)O)cc2)cnn1C)c1ccccc1 [IT398] | > 500 |
| C[C@@H](NC(=O)C#Cc1ccc(-c2cnn(C)c2NC(=O)O[C@H](C)c2ccccc2)cc1)C(=O)O [IT399] | > 500 |
| C[C@H](NC(=O)C#Cc1ccc(-c2cnn(C)c2NC(=O)O[C@H](C)c2ccccc2)cc1)C(=O)O [IT400] | > 500 |
| C[C@@H](OC(=O)Nc1c(-c2ccc(C#CC(=O)N[C@H](C(=O)O)c3ccccc3)cc2)cnn1C)c1ccccc1 [IT402] | > 500 |

Next, values leading:

| EC50 [nM] | SMILES |
| --- | --- |
| > 500 | CC(C)[C@@H](NC(=O)C#Cc1ccc(-c2cnn(C)c2NC(=O)O[C@H](C)c2ccccc2)cc1)C(=O)O [IT403] |
| > 500 | CC(C)[C@H](NC(=O)C#Cc1ccc(-c2cnn(C)c2NC(=O)O[C@H](C)c2ccccc2)cc1)C(=O)O [IT404] |
| > 500 | C[C@@H](OC(=O)Nc1c(-c2ccc(C#CC(=O)NC3(C(=O)O)CC3)cc2)cnn1C)c1ccccc1 [IT405] |
| 50 to 500 | Cc1noc(-c2ccc(-c3ccc(Oc4ccc(C(=O)O)s4)cc3)cc2)c1NC(=O)O[C@H](C)c1ccccc1 [IT409] |
| > 500 | COc1cc(CC(=O)O)c(F)cc1-c1cc2sc(-c3cnn(C)c3NC(=O)O[C@H](C)c3ccccc3)cc2s1 [IT410] |
| 50 to 500 | COc1cc(C2(C(=O)O)CC2)c(F)cc1-c1cc2sc(-c3cnn(C)c3NC(=O)O[C@H](C)c3ccccc3)cc2s1 [IT411] |
| > 500 | COc1cc(C2(C(=O)O)CC2)c(F)cc1-c1cc2sc(-c3snc(C)c3NC(=O)O[C@H](C)c3ccccc3)cc2s1 [IT412] |
| > 500 | COc1cc(C2(C(=O)O)CC2)c(OC)cc1-c1cc2sc(-c3snc(C)c3NC(=O)O[C@H](C)c3ccccc3)cc2s1 [IT413] |
| > 500 | COc1cc(C2(C(=O)O)CC2)c(OC)cc1-c1cc2sc(-c3cnn(C)c3NC(=O)O[C@H](C)c3ccccc3)cc2s1 [IT414] |
| > 500 | COc1cc(C2(C(=O)O)CC2)c(OC)cc1-c1cc2sc(-c3nnn(C)c3NC(=O)O[C@H](C)c3ccccc3)cc2s1 [IT415] |
| > 500 | C[C@@H](OC(=O)Nc1c(-c2cc3sc(-c4ccc(CC(=O)O)cc4OC(F)(F)F)cc3s2)nnn1C)c1ccccc1 [IT416] |
| 50 to 500 | Cc1noc(-c2ccc(-c3ccc(Oc4ncoc4C(=O)O)cc3)cc2)c1NC(=O)O[C@H](C)c1ccccc1 [IT419] |
| > 500 | Cc1nsc(-c2cc3sc(-c4ccc5[nH]c(C6(C(=O)O)CC6)nc5c4)cc3s2)c1NC(=O)O[C@H](C)c1ccccc1 [IT421] |
| > 500 | C[C@@H](OC(=O)Nc1c(-c2cc3sc(-c4ccc5[nH]c(C6(C(=O)O)CC6)nc5c4)cc3s2)nnn1C)c1ccccc1 [IT422] |

— US20140213538A1, “LYSOPHOSPHATIDIC ACID RECEPTOR ANTAGONISTS” (InterMune, Inc., priority 2013, published 2014)
